This is an account of results in US20080131384A1, “External Preparation for Skin Whitening, Whitening Agent, Whitening Method and Method of Production of External Preparation for Skin Whitening” (Shiseido Company, Ltd., priority 2004, published 2008).

The subject of the assay is Mouse B16 melanoma cells. As to the kind of experiment: Visual determination of melanin amount and number of cells in cultured B16 melanoma cells. In kind it is cell-based. Set-up: key: Good: whiter in comparison with the reference, and determined that the amount of melanin was small; Fair: slightly whiter in comparison with the reference, and determined that the amount of melanin was slightly small; Poor: equally white in comparison with the reference, and determined that the amount of melanin was almost the same. The settings on record: 3 days incubation. The method, then:
Mouse B16 melanoma cells were used. These were cultured in Eagle's MEM containing 10% FBS and theophylline (0.09 mg/ml) in a CO2 incubator (95% air, 5% carbon dioxide) at 37° C. After 24 hours of culture, the sample solution was added to give a final concentration of 2×10^−3 to 2×10^−5 weight % (as dried extract concentration). After further incubation for 3 days, the amount of melanin was determined visually by the following method.
A diffuser plate was placed on the lid of a well plate, the number of cells and the amount of melanin in the cells were observed by an inverted microscope and compared with a reference sample to which no plant extracts were added. The results are shown in Table I. Further, as a positive control, a similar examination as the above was performed for arbutin, which is already known to have an action suppressing melanin production.
Judgment Criteria • Good: whiter in comparison with the reference, and determined that the amount of melanin was small. • Fair: slightly whiter in comparison with the reference, and determined that the amount of melanin was slightly small. • Poor: equally white in comparison with the reference, and determined that the amount of melanin was almost the same.

Consider `OC[C@H]1O[C@@H](Oc2ccc(O)cc2)[C@H](O)[C@@H](O)[C@@H]1O` [Arbutin, arbutin], for which the “Visual Evaluation of Melanin Production” value is, setting by setting: (sample concentration 0.001 mass %) “Fair”; (sample concentration 0.002 mass %) “Good”.
